Experimental data reported in patent publication US9988399B2, “Bicyclic compounds as ACC inhibitors and uses thereof” (Gilead Apollo, LLC, priority 2013, dated 2018).
pIC50: −log10 of the molar value.

How the values were obtained:
ACC1 = ACC1 isolated from rat, mouse, monkey and human; cited from earlier work
ACC2 [1] = conditions: ACC2 isolated from rat, mouse, monkey and human; cited from earlier work
ACC2 [2] = target: ACC2 (Homo sapiens, UniProt O00763); assay: in vitro ACC2 inhibition assay (ADP-Glo); format: biochemical; conditions: 5 nM ACC2, 20 μM ATP, 20 μM acetyl-CoA
ACC2 (Homo sapiens, UniProt O00763), sequence (O00763 whole entry, species assumed): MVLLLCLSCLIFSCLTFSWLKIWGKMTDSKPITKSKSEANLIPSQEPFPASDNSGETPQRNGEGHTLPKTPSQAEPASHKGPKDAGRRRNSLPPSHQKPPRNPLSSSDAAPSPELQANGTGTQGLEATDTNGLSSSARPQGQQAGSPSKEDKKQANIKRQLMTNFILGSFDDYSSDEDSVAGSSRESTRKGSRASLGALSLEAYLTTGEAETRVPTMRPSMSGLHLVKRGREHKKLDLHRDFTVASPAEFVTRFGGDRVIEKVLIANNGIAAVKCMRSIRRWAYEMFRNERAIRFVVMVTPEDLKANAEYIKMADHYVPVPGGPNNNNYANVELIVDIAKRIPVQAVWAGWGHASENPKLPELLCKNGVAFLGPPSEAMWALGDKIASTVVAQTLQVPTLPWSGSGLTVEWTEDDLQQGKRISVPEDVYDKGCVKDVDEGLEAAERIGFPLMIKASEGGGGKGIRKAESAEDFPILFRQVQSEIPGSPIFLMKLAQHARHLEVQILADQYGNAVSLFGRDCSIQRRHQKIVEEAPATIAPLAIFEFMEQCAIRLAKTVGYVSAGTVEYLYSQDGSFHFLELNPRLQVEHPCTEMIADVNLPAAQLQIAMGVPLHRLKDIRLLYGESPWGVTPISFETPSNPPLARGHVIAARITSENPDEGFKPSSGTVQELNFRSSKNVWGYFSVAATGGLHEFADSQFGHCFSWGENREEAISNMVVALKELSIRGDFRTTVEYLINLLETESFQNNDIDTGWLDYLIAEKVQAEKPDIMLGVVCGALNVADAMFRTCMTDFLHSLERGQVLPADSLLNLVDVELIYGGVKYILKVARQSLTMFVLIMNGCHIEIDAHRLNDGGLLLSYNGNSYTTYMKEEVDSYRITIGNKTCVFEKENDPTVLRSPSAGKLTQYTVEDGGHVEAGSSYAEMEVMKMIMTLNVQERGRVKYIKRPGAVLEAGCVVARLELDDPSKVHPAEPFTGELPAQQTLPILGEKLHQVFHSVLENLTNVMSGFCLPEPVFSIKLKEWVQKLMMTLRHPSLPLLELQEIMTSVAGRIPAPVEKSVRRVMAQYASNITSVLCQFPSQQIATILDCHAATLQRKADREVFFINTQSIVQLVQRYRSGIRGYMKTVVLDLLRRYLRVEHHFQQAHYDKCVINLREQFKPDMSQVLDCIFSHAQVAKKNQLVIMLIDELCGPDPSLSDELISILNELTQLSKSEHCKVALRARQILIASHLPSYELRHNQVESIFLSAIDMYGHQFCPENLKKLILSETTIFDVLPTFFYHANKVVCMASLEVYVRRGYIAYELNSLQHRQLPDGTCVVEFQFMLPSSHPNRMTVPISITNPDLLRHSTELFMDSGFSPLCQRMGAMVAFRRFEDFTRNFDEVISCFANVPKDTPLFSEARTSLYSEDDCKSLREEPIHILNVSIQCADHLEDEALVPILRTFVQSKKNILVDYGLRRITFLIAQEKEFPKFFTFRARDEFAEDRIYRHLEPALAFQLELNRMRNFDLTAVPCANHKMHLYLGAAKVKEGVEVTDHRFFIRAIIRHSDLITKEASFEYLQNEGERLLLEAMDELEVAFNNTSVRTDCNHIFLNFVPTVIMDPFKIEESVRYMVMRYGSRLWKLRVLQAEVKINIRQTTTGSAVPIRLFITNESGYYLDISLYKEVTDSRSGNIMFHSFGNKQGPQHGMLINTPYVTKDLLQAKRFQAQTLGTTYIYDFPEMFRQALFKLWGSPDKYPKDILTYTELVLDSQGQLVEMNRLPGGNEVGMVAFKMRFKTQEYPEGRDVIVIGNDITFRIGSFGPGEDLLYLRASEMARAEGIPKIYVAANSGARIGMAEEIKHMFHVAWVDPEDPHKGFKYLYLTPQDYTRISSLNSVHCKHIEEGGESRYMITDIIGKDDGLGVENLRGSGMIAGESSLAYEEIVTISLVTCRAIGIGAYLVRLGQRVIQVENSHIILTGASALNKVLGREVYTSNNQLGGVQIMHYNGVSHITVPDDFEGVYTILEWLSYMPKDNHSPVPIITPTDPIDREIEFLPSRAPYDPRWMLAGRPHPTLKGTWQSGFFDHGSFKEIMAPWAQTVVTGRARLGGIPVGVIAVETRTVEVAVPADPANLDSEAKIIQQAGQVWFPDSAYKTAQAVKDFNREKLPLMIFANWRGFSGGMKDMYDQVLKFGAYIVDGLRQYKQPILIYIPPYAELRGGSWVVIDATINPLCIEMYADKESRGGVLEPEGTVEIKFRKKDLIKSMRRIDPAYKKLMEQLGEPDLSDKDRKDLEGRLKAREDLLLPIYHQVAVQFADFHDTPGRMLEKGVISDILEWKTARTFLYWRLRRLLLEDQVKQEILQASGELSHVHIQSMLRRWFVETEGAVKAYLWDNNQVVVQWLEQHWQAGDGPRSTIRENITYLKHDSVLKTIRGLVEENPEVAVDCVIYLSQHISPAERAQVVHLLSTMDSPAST
Protocol: An exemplary procedure for the in vitro ACC inhibition assay, which can be used to determine the inhibitory action of compounds of the invention toward either ACCT or ACC2, follows. The ADP-Glo™ Kinase Assay kit from Promega is used. The ADP-Glo™ Kinase Assay is a luminescent ADP detection assay to measure enzymatic activity by quantifying the amount of ADP produced during an enzyme reaction. The assay is performed in two steps; first, after the enzyme reaction, an equal volume of ADP-Glo™ Reagent is added to terminate the reaction and deplete the remaining ATP. Second, the Kinase Detection Reagent is added to simultaneously convert ADP to ATP and allow the newly synthesized ATP to be measured using a luciferase/luciferin reaction. Luminescence can be correlated to ADP concentrations by using an ATP-to-ADP conversion curve. The detailed procedure is as follows. 50 μL of the compound being tested (600 uM in DMSO) is added to a 384-well dilution plate. The compound is diluted 1:3 in succession in DMSO for each row for 11 wells. […] is added to 384-well white Optiplate assay plate. 0.5 μL diluted compound solution in each column from step 2 is added to the assay plate, each row containing 2 replicates. For the last 2 rows, add 0.5 μL negative control (DMSO) in one row and 0.5 μL positive control (compound I-97) in the other. The plates are incubated at room temperature for 15 minutes. 5 μL substrate working solution is added to each well to initiate reaction. Final ACC2 reaction concentrations consist of: 5 nM ACC2, 20 μM ATP, 20 μM acetyl-CoA, 12 mM NaHCO3, 0.01% Brij35, 2 mM DTT, 5% DMSO, test compound concentrations: 30 μM, 10 μM, 3.33 μM, 1.11 μM, 0.37 μM, 0.123 μM, 0.0411 μM, 0.0137 μM, 0.00457 μM, 0.00152 μM, and 0.00051 μM. Plates are incubated at room temperature for 60 minutes. 10 μL ADP glo reagent is added. Plates are incubated at room temperature for 40 minutes. 20 μL kinase detection reagent is added. Plates are incubated at room temperature for 40 minutes, then read on a Perkin Elmer EnVision 2104 plate reader for luminescence as Relative Light Units (RLU).
Data for each concentration, as well as the positive and negative controls are averaged, and the standard deviation calculated. Percent inhibition is calculated by the formula: 100×(average negative control−compound)/(average negative control−average positive control). The IC50 for each compound is calculated by fitting the data with a non-linear regression equation: Y=Bottom+(Top-Bottom)/(1+10^((Log IC50−X)*HillSlope)), where X is the log of compound concentration and Y is percent inhibition.

SMILES | pIC50 (ACC1) | pIC50 (ACC2 [1]) | pIC50 (ACC2 [2])
O=C(c1c2ccccc2cc2ccccc12)N1CCC(N2CCC[C@@H](C(=O)N3CCOCC3)C2)CC1 [CP-640186] | ~7.22 | ~7.22 | –
COc1ccccc1CCc1cn(CC(=O)O)c(=O)c2c(C)c(-c3ncco3)sc12 [Compound I-33, 2-(7-(2-methoxyphenethyl)-3-methyl-2-(oxazol-2-yl)-4-oxothieno[3,2-c]pyridin-5(4H)-yl)acetic acid] | – | – | ≥ 6.00
COc1ccccc1CCc1cn(CC(N)=O)c(=O)c2c(C)c(-c3ncco3)sc12 [Compound I-34, 2-(7-(2-methoxyphenethyl)-3-methyl-2-(oxazol-2-yl)-4-oxothieno[3,2-c]pyridin-5(4H)-yl)acetamide] | – | – | ≥ 6.00
COc1ccccc1CCn1c(=O)n(CC(=O)O)c(=O)c2nc(-c3ncco3)sc21 [Compound I-35, 2-(4-(2-methoxyphenethyl)-2-(oxazol-2-yl)-5,7-dioxo-4,5-dihydrothiazolo[5,4-d]pyrimidin-6(7H)-yl)acetic acid] | – | – | 4.70 to 5.30
COc1ccccc1CCn1c(=O)n(CC(=O)O)c(=O)c2c1nc(-c1ncco1)n2C [Compound I-36, 2-(3-(2-methoxyphenethyl)-7-methyl-8-(oxazol-2-yl)-2,6-dioxo-2,3,6,7-tetrahydro-1H-purin-1-yl)acetic acid] | – | – | 4.70 to 5.30
